Test results taken from patent US20070219159A1, “CYCLODEXTRIN COMPOSITIONS AND METHODS OF TREATING VIRAL INFECTIONS” (priority 2002, published 2007).
Where two headings read alike, the source gives them in different places.

Columns and labels:
HSV-1 strain KOS1.1 = assay type: cell-based
[1] = tested on: dlsptk (an ACV-resistant, tk deletion mutant of HSV-1); assay type: cell-based; conditions: MOI 10, 20 μM (4.5 μg/ml) ACV or 6.4 mg/ml β-CD for 24 hours
Vero cells = test: Cell viability by LDH release assay; assay type: cell-based; conditions: acyclovir 400 μg/ml, 24 and 48 hours, Vero cells
Procedure: FIG. 3 depicts the effects of ACV alone (400 μg/ml) and β-CD alone (8 mg/ml) on the viability of Vero cells as monitored by the LDH release assay after 24 hours of treatments (A); and after 48 hours of treatments (B). All data represents means+SD of two separate experiments.
Cell viability assay. Cell viability was determined fluorometrically by estimating the release of LDH into the media (Moran and Schnellman, 1996). LDH activity was based on the reduction of pyruvate to lactate. The concomitant oxidation of NADH results in a decrease in the fluorescence emission at 450 nm with excitation wavelength 355 nm, and the rate of disappearance of NADH is indicative of LDH activity.
To study the effects of formulations on viability of preformed monolayers, 3 to 4×10^6 Vero cells were added to 1× MEM-5% FBS in T75 flasks. […] Used media were replaced with 15 ml of treatment media, containing 5× MEM-FBS diluted to 1× with water (control), acyclovir stock (400 μg/ml), or β-CD stock (8 mg/ml in water). […]
Reaction solution was made fresh for each experiment by mixing 0.4 ml of 16.2 mM pyruvate with 10 ml of 0.2 mM NADH in phosphate buffer (pH 7.5). […] The amount of LDH calculated for either condition was then compared with and expressed as a percentage of the total LDH present.
Used media were replaced with 15 ml/flask or 2.5 ml/well of treatment media, containing 5× MEM-FBS diluted to 1× with water (control), and […]CD stock. […] Live cells are distinguished by the presence of intracellular esterase activity, as determined by the enzymatic conversion of calcein-AM (nonfluorescent) to calcein (green fluorescence). EthD-1 enters cells with damaged cell membranes and binds to nucleic acids producing red fluorescence to identify dead cells. […] For LDH assays, cells were trypsinized, resuspended in fresh 1× medium, kept at 37° C.-5% CO2 atmosphere, and total LDH present in cells and medium was determined after lysing the cells with 350 μM digitonin. The amount of LDH calculated for either condition was then compared with and expressed as a percentage of the total LDH present. […]

HCV = test: In vitro anti-HCV assay in HCV RNA-replicating cell line AVA5; assay type: cell-based
Procedure: The antiviral activity of test compounds were assayed in the stably HCV RNA-replicating cell line. AVA5, derived by transfection of the human hepatoblastoma cell line, Huh^7 (Blight et al., 2000). Experimental drugs were added to dividing cultures once daily for three days. Media was changed with each addition of compound. Cultures generally started the assays at 50% confluence and reached confluence during the last day of treatment. HCV RNA and cellular β-actin RNA levels were assessed 24 hours after the last dose of compound using dot blot hybridization. Assays were conducted using a single dose of test compound (in triplicate cultures).
Both HCV and β-actin RNA levels in the treated cultures were expressed as a percentage of the mean levels of RNA detected in untreated cultures. β-actin RNA levels were used both as a measure of toxicity, and to normalize the amount of cellular RNA in each sample. A level of 30% or less HCV RNA (relative to control cultures) was considered to be a positive antiviral effect, and a level of 50% or less β-actin RNA (relative to control cultures) is considered to be a cytotoxic effect.
Dividing cultures of AVAB cells were treated once daily for three days (media was changed with each addition of compound) with 4 concentrations of test compounds (3 cultures per concentration). A total of 6 untreated control cultures, and triplicate cultures treated with 10, 3, and 1 IU/ml α-interferon (active antiviral with no cytotoxicity), and 100, 10, and 1 μM ribavir ([…]) served as controls. HCV RNA and cellular β-actin FNA levels were assessed 24 hours after the last dose of compound using dot blot hybridization. β-actin RNA levels were used to normalize the amount of cellular RNA in each sample.
Toxicity analyses were performed on separate plates from those used for the antiviral assays. Cells for the toxicity analyses were cultured and treated with test compounds with the same schedule and under identical culture conditions used for the antiviral evaluations. Each compound was tested at 4 concentrations, each in triplicate cultures. Uptake of neutral red dye was used to determine the relative level of toxicity 24 hours following the last treatment. The absorbance of internalized dye at […] (A510) was used for the quantitative analysis. Values in test cultures were compared to 9 cultures of untreated cells maintained on the same plate as the test cultures.
Assays similar to those described above were conducted.

HSV-1 = conditions: in general 1000-fold less drug than Examples 1-6 and 10
HSV-2 = conditions: in general 1000-fold less drug than Examples 1-6 and 10
West Nile = test: In vitro antiviral screening (Table 1), West Nile

Row | Molecule | S.I. for HCV (HCV) | SI = CC50/EC50 (HSV-1) | SI = CC50/EC50 (HSV-2) | SI = CC50/EC50 (VZV) | SI = CC50/EC50 (HCMV) | SI = CC50/EC50 (MCMV) | SI = CC50/EC50 (HHV-6) | SI = CC50/EC50 (HHV-7) | SI = CC50/EC50 (Flu A) | SI = CC50/EC50 (Flu B) | SI = CC50/EC50 (RSV) | SI = CC50/EC50 (PIV) | SI = CC50/EC50 (MV) | SI = CC50/EC50 (HRV) | SI = CC50/EC50 (Ad) | SI = CC50/EC50 (Resp syncytial) | SI = CC50/EC50 (Rhino) | SI = CC50/EC50 (Vaccinia) | SI = CC50/EC50 (Cowpox) | SI = CC50/EC50 (West Nile) | further results
1 | Nc1nc2c(ncn2COCCO)c(=O)[nH]1 [ACV, acyclovir, reference compound] | – | – | – | – | – | – | – | – | – | – | – | – | – | – | – | – | – | – | – | – | reduction of KOS1.1 yield at 24 hours (HSV-1 strain KOS1.1; 4.5 μg/ml ACV, MOI 10, post-infection treatment): 10^2 fold; yield of cell-free and cell-associated virus (HSV-1 strain KOS1.1; 24 hours post-infection, MOI 50, BCD 7.2 mg/ml, ACV 400 μg/ml or both, pre, during and post infection treatment (FIG. 1)): markedly decreased; effect on yield of acyclovir-sensitive HSV KOS1.1 (FIG. 2) (HSV-1 strain KOS1.1; MOI 10, 20 μM ACV or 6.4 mg/ml β-CD for 24 hours): able to lower the yield; effect on yield of acyclovir-resistant dlsptk virus (FIG. 2) [1]: no activity; effect on yield of acyclovir-resistant dlsptk virus (FIG. 2) ([1]; listed as acyclovir): not of the acyclovir -resistant mutant; drug-related cell killing (Vero cells): no drug-related cell killing
2 | OC[C@H]1O[C@@H]2O[C@H]3[C@H](O)[C@@H](O)[C@@H](O[C@H]4[C@H](O)[C@@H](O)[C@@H](O[C@H]5[C@H](O)[C@@H](O)[C@@H](O[C@H]6[C@H](O)[C@@H](O)[C@@H](O[C@H]7[C@H](O)[C@@H](O)[C@@H](O[C@H]8[C@H](O)[C@@H](O)[C@@H](O[C@H]9[C@H](O)[C@@H](O)[C@@H](O[C@H]1[C@H](O)[C@H]2O)O[C@@H]9CO)O[C@@H]8CO)O[C@@H]7CO)O[C@@H]6CO)O[C@@H]5CO)O[C@@H]4CO)O[C@@H]3CO [GCD, γ-cyclodextrin] | 1.04 | 0 | 0 | 0 | 0 | 0 | 0 | 0 | 0 | 0 | 0 | 0 | 0 | 0 | 0 | 0 | 0 | 0 | 0 | 0 | SI = CC50/EC50 (EBV): 0; SI = CC50/EC50 (Measles): 0; SI = CC50/EC50 (VEE): 0; SI = CC50/EC50 (Punta Toro): 0; SI = CC50/EC50 (Pichinde): 0; SI = CC50/EC50 (Yellow fever): 0
3 | CC(O)COC[C@H]1O[C@@H]2O[C@H]3[C@H](O)[C@@H](O)[C@@H](O[C@H]4[C@H](O)[C@@H](O)[C@@H](O[C@H]5[C@H](O)[C@@H](O)[C@@H](O[C@H]6[C@H](O)[C@@H](O)[C@@H](O[C@H]7[C@H](O)[C@@H](O)[C@@H](O[C@H]8[C@H](O)[C@@H](O)[C@@H](O[C@H]1[C@H](O)[C@H]2O)O[C@@H]8COCC(C)O)O[C@@H]7COCC(C)O)O[C@@H]6COCC(C)O)O[C@@H]5COCC(C)O)O[C@@H]4COCC(C)O)O[C@@H]3COCC(C)O (stereo partly drawn) [HPBCD, hydroxypropyl β-cyclodextrin] | 1.26 | 0 | 0 | 0 | 0 | 0 | 0 | 0 | 0 | 0 | 0 | 0 | 0 | 0 | 0 | 0 | 0 | 0 | 0 | 0 | SI = CC50/EC50 (Measles): 0; SI = CC50/EC50 (VEE): 0; SI = CC50/EC50 (Punta Toro): 0; SI = CC50/EC50 (Pichinde): 0; SI = CC50/EC50 (Yellow fever): 0
4 | hydroxypropyl α-cyclodextrin [HPACD] | 0.97 | – | – | – | – | – | – | – | – | – | – | – | – | – | – | – | – | – | – | 0 | –
5 | hydroxypropyl γ-cyclodextrin [HPGCD] | 1.39 | – | – | – | – | – | – | – | – | – | – | – | – | – | – | – | – | – | – | 0 | SI = CC50/EC50, value in parenthesis calculated by DNA hybridization (EBV; DNA hybridization): 6.2
6 | α-interferon | – | – | – | – | – | – | – | – | – | – | – | – | – | – | – | – | – | – | – | – | approximate EC90 (HCV; positive antiviral control, no cytotoxicity): ~10 IU/ml
